Experimental data as given in patent US11135229B2, “Cat and dog sterilization by estrogenic compounds” (Insigna Inc., priority 2018, dated 2021).

How the values were obtained:
[1] = system: premature male and female rats; format: in vivo
[2] = rat, in vivo, sc
Method: Hormonal measurement. Blood was collected from the tail vein or by cardiac puncture. The blood was centrifuged at 2000×g for 10 minutes; then serum was collected and preserved at −20° C. until further analyses. Serum estradiol concentrations were measured by using ELISA kits (DRG EIA4399) with a reportable range of 1.4-200 μg/ml.
A silicone capsule containing 17β-estradiol 3-benzoate (EB, Sigma E8515) was used as a device to elevate blood 17β-estradiol (E2) concentration to a supra-physiological level. Once implanted subcutaneously, the silicone capsule with EB (called eSpay) releases EB for an extended period of time. […] Therefore, EB that contained 300 μg of EB (herein EB300) was made by dissolving 300 μg of EB in 5 μl of sesame oil (Sigma S3547), and it was inserted into a silicone tube (Dow Corning 508-005) that was later closed with silicone sealant (Factor II, Inc. Medical Adhesive A-100). The capsule was kept at room temperature until use. The EB300 capsule was approximately 8 mm long and 2.16 mm in diameter. […]
The efficacy of the EB300 capsule as a device to elevate E2 levels in its recipient was tested after implanting it on the day of birth (post-natal day 0, PND 0). Serum and hypothalami were collected at PND 1, 2, 3, 4, 7, 10, 21, and 30, and E2 concentrations were measured.

[3] = premature male rats, capsule injected subcutaneously

C[C@]12CC[C@@H]3c4ccc(OC(=O)c5ccccc5)cc4CC[C@H]3[C@@H]1CC[C@@H]2O [EB, 17β-Estradiol 3-benzoate]
Female reproductive system ([1]; premature female rats, capsule injected): preventing the females from undergoing menstrual cycling and from producing ova
Sterility of male rats [1, 3]: permanently sterile
Testicular testosterone and sperm production [1, 3]: did not produce testosterone or sperm
Death or sickness ([1]; rat, in vivo): no subject animal died or exhibited sickness
Immune system, liver and kidney function examination ([1]; rat, in vivo): no clinical pathology
Period of sustained, high blood E2 level [2]: about three weeks
